Article PMC4985751, “Enhanced Cationic Charge is a Key Factor in Promoting Staphylocidal Activity of α-Melanocyte Stimulating Hormone via Selective Lipid Affinity” (Scientific Reports, 2016)

Key:
MSSA ATCC 29213 [1] = test: 2 h killing assay (colony count), MSSA; type: cell-based, Staphylococcus aureus; conditions: 10 μM peptide, 37 °C, 10^7 CFU/mL MSSA ATCC 29213, 5 mM HEPES, 20 mM glucose, pH 7.4, mean ± S.D. of three independent experiments
Procedure: (§1) To determine the antibacterial activity, cells (MSSA ATCC 29213 and MRSA ATCC 33591) from secondary culture mid-logarithmic phase were used. The cells were centrifuged, washed and re-suspended in buffer (5 mM HEPES, 20 mM glucose, pH 7.4). The re-suspended cells were adjusted to OD600 of 0.5 spectrophotometrically (~10^8 CFU/mL). Desired cell densities were then exposed to 10 μM concentration of α-MSH and other analogues and incubated at 37 °C for 2 h. After 2 h incubation, the cells were diluted in buffer and small aliquots were plated on BHI agar plates. The plates were incubated overnight at 37 °C. Survival was determined by counting of the colony forming unit (CFU/mL) on agar plate using the following formula[23]: […]

MSSA ATCC 29213 [2] = test: Membrane permeabilization, PI uptake by flow cytometry; type: cell-based, Staphylococcus aureus; conditions: 10 μM peptide, 1 h, 37 °C, 10^5 CFU/mL in PBS pH 7.4; >10 a.u. counted positive; mean ± S.D. of three independent experiments
Procedure: The propidium iodide (PI) uptake assay was performed to assess membrane permeabilization by flow cytometry according to a method described elsewhere[58]. MSSA ATCC 29213 cells were grown in BHI broth to mid-logarithmic phase and harvested by centrifugation at 4,000 rpm for 10 min. The cell pellet was washed once with PBS (10 mM sodium phosphate, 150 mM NaCl, pH 7.4) and was adjusted to 10^5 CFU/mL in PBS. The cells were incubated with PI (1.3 μg/mL) at 37 °C for 20 min in the dark. After incubating the cells with PI, cells were exposed to peptides (10 μM) at 37 °C. PI fluorescence was measured after 1 h incubation with excitation and emission wavelength of 544 nm and 620 nm, respectively, using Becton Dickinson (BD) FACS verse, San Jose, CA. The cells having more than 10 fluorescence unit (arbitrary) were considered to be stained with PI.

[3] = RP-HPLC elution, % hydrophobicity; type: physicochemical; conditions: chromatographic, C18 column
Text: A balance between hydrophobicity and cationic charge has been reported to be crucial for the activity of many membrane active CAMPs[39][40][41]. […] For α-MSH it has been shown that the minimum energy conformation is a β-turn which is present in the middle of the sequence spanning the putative message region (residues 6–9)[42]. […] Although, acquisition of secondary structure in the vicinity of phospholipid bilayers has been reported to be crucial for activity, there are examples where no direct correlation between peptide structure acquisition ability and antibacterial activity was observed.

MSSA ATCC 29213 [4] = type: cell-based, Staphylococcus aureus; conditions: at 10.47 μM peptide; thereafter marginal increase up to 41.2 μM
Procedure: The cytoplasmic membrane depolarization was measured using membrane potential sensitive cyanine dye DiSC3(5)[57]. Briefly, mid-logarithmic phase MSSA ATCC 29213 cells were washed and re-suspended in buffer (5 mM HEPES, 20 mM glucose, pH 7.2) to an OD600 of 0.05 which corresponds to ~10^7 CFU/mL. Cells were divided into aliquots and incubated with 2 μM of DiSC3(5) for 1 h to get steady baseline fluorescence intensity. The dye-loaded cells were treated with increasing peptide concentrations (2.1 μM, 10.47 μM, 20.83 μM and 41.23 μM). Fluorescence was monitored in a Shimadzu RF-5301 PC spectrofluorimeter at an excitation wavelength of 622 nm and an emission wavelength of 670 nm. The corresponding killing was measured by plating the aliquots onto BHI agar plate to obtain viable bacterial counts.

MRSA ATCC 33591 = test: 2 h killing assay (colony count), MRSA; type: cell-based, Staphylococcus aureus; conditions: 10 μM peptide, 37 °C, 10^6 CFU/mL MRSA ATCC 33591, 5 mM HEPES, 20 mM glucose, pH 7.4, mean ± S.D. of three independent experiments
Procedure: as §1

[5] = Lipid binding by Trp fluorescence titration
Procedure: Further, we evaluated the relative binding constants of α-MSH and KKK-MSH to bacterial mimic SUVs to understand if there are differences between lipid binding affinities of these two peptides. Towards this, we incubated a fixed concentration of peptide (12.5 μM) with increasing concentrations of bacterial mimic SUVs (DMPC:DMPG, 7:3, w/w) and concomitant changes in the intensity of emission maxima for Trp residue were recorded. Correction for light scattering was done by subtracting the corresponding spectra of the SUVs alone. […]
Figure 7 Trp fluorescence studies to estimate binding of α-MSH and KKK-MSH to bacterial mimic SUVs. Increasing concentrations of DMPC:DMPG (7:3, w/w) SUVs in 10 mM TES buffer (pH 7.2) were titrated with fixed peptide concentration (12.5 μM) and the emission spectrum was recorded. […] The fluorescence spectrum was recorded at 25 °C by exciting samples at 295 nm and recording emission from 310 nm to 450 nm. […] Contributions from the buffer and SUVs were appropriately subtracted and volume corrected fluorescence values were used to calculate the fraction of bound peptide.
Lipid binding was measured by titrating SUVs (DMPC:DMPG, 7:3, w/w) into 12.5 μM of the peptide by varying lipid to peptide ratio from 75.6 to 3.3. After each addition of lipid, emission spectrum was recorded between 310 to 450 nm using excitation at 295 nm with excitation and emission slit width of 3 nm. […]

[6] = test system: B16 mouse melanoma cells stably expressing human melanocortin receptor MC1R; test: Cyclic-AMP accumulation analysis; type: cell-based; conditions: 600 nM, 1 μM and 10 μM peptide, 10 min
Procedure: The intracellular cyclic-AMP analysis was performed according to a method described elsewhere, with slight modifications. Briefly, B16 mouse melanoma cells stably expressing human melanocortin receptor MC1R were grown to confluence in DMEM medium (Sigma-Aldrich, USA) containing 10% fetal calf serum (FCS) and 1x anti-anti (Gibco). The cells were seeded in 12-well plates 48 h before assay and grown to 10^5 cells/well. For the assay, the medium was removed and cells were washed with 1 mL of media. Then 1 mL DMEM media (without FCS) containing 100 μM 3-isobutyl-1-methylxanthine (IBMX) was added to each well and incubated for 30 min at 37 °C. The media was then discarded and various concentrations of α-MSH and KKK-MSH viz., 600 nM, 1 μM and 10 μM, in 1 mL fresh 25% DMEM media (without FCS) in PBS containing 100 μM IBMX were added to the appropriate wells and incubated for 10 min at 37 °C, 5% CO2. After 10 min the reaction was stopped by aspirating the media and washing the wells with 1 mL PBS. 200 μL 0.1 M hydrochloric acid was then added to each well and the wells were scrapped. The lysates were centrifuged at 600 rcf for 5 min and the supernatants were collected and diluted 1000 times in 0.1 M HCl and used for analysis of the total cyclic-AMP content using Enzyme Immunoassay Kit (Sigma-Aldrich, USA, CA200) according to the manufacturer’s instructions.

[7] = test system: 3T3 murine fibroblast cell line; type: cell-based, mouse
Procedure: The cytotoxicity of α-MSH and analogues was tested against 3T3 murine fibroblast cell line using a protocol as described previously. The cell line was propagated at 37 °C in 5% CO2 to over 75% confluence in DMEM supplemented with 10% fetal bovine serum (FBS) and antibiotics and transferred (after treatment with trypsin) to each well of a 24-well plate to a final count of 0.2 × 10^5 cells/well for 24 h. After 24 h, media was aspirated and desired concentration of peptides (50 μM) dissolved in 25% (v/v) DMEM in PBS was added to each well (in triplicate). Triplicate wells without treatment were set as control and wells with 2% Triton X-100 were used as positive control. The plate was kept for 2 h, at 37 °C in 5% CO2 incubator. After 2 h, media was removed and the cells were washed once with 1 mL PBS. In dark, 1 mL MTT (working conc. 0.1 mg/mL) was added to each well and incubated for 2 h at 37 °C. After 2 h, the formazan crystals formed were dissolved in 200 μL of DMSO and kept for 5 min in the incubator. 150 μL of this mixture was transferred to a fresh 96-well plate and absorbance was measured spectrophotometrically at 570 nm. % cytotoxicity was calculated as [(OD570 of control-OD570 of sample)/(OD570 of control)] × 100. The assay was done in triplicate on three different days.

| Substance | Reduction in initial cell count (MSSA ATCC 29213 [1]) [Log10 CFU/mL] | Cells retaining PI (PI positive cells) (MSSA ATCC 29213 [2]) [%] | % H (% hydrophobicity based on % of acetonitrile at RP-HPLC elution) [3] [%] | Membrane depolarization, relative fluorescence intensity (RFI) of DiSC3(5) (MSSA ATCC 29213 [4]) | Reduction in initial cell count (MRSA ATCC 33591) [Log10 CFU/mL] | Binding constant to bacterial mimic SUVs ([5]; 12.5 μM peptide titrated with DMPC:DMPG (7:3, w/w) SUVs, L:P 75.6 to 3.3, 10 mM TES pH 7.2, 25 °C, hyperbolic fit, one site model) | Binding constant relative to α-MSH ([5]; DMPC:DMPG (7:3, w/w) SUVs, steady-state fluorescence) | Cyclic-AMP levels compared to untreated control ([6]; 37 °C, 100 μM IBMX, enzyme immunoassay, p < 0.05) | Cyclic-AMP levels compared to α-MSH ([6]; comparable at higher, lower at lower concentration) | Cytotoxicity relative to growth control [7] [%] |
| --- | --- | --- | --- | --- | --- | --- | --- | --- | --- | --- |
| Ac-KYKMKHFRWGKPV-NH2 [KKK-MSH] | 4.07 ± 0.92 | 67.6 ± 3.4 | 39.9 | appreciable increase in RFI | 3.81 ± 0.33 | 15,402.74 M^−1 | ~ 18 fold | dose-dependent elevation in cyclic-AMP | comparable or lower levels of cyclic-AMP | – |
| Triton X-100 | – | – | – | – | – | – | – | – | – | 83 |
